Experimental data taken from the OPERA property sets (Mansouri et al. 2018).
Peptide text beside a SMILES is read from it.

conditions: not given

Row | Compound | logP
1 | CC[C@H](C)[C@H](N)C(=O)O | -1.72
2 | O=C1C=C(NCCO)C(=O)c2ccccc21 | 1.23
3 | Clc1cccs1 | 2.54
4 | Nc1ccc2[nH]ccc2c1 | 0.7
5 | COc1ccccc1C(=O)O | 1.59
6 | CN(C1CCCCC1)C1CCCCC1 | 3.71
7 | CCCCNc1nc(NCC)nc(SC(F)F)n1 | 4.51
8 | O=C(NC(CO)C(O)c1ccc([N+](=O)[O-])cc1)C(F)F (centres undefined) | 0.42
9 | CCCCCOCc1cccc(NC(=O)OCCN2CCCCC2)c1 | 4.2
10 | CC(=O)N[C@H](C(=O)N[C@H](C(N)=O)C(C)C)C(C)C (Ac-Val-Val-NH2) | -0.32
11 | O=[N+]([O-])c1cc[n+]([O-])c2ccc(Cl)cc12 | 1.41
12 | CCN(CC)C(=O)[C@@H]1C=C2c3cccc4[nH]cc(c34)C[C@H]2N(C)C1 | 2.95
13 | CC(C)c1ccc(OC(=O)c2ccc(N)cc2O)cc1 | 4.12
14 | Nc1ccc2ccccc2c1S(=O)(=O)O | -1.16
15 | C=CC=CCC | 3.16
16 | CCNc1nc(NC(C)(C)C)nc(SC(F)F)n1 | 4.57
17 | CCOP(=O)(OCC)Oc1ccc(SC)cc1Cl | 3.05
18 | CS(=O)(=O)ON1C(=O)c2ccc([N+](=O)[O-])cc2C1=O | 1.71
19 | O=[N+]([O-])c1ccsc1 | 1.55
20 | C=C(C)C(=O)O | 0.93

Row | Compound | logP
21 | ON=Cc1ccc(Cl)cc1 | 2.67
22 | CNC(=O)c1cccnc1 | 0
23 | Nc1ccc(CO)cc1 | -0.22
24 | CC(C)(C)N | 0.4
25 | COc1ccc(O)c2ncccc12 | 2.06
26 | O=C(CI)NC(CO)C(O)c1ccc([N+](=O)[O-])cc1 (centres undefined) | 1.03
27 | Cc1cc(O)ccc1Cl | 3.1
28 | Cc1cccc(C)n1 | 1.68
29 | Brc1cc(Br)c(Br)cc1Br | 5.13
30 | CCCOC(=O)c1cccnc1 | 1.94
31 | NNC(=O)c1ccnc(-c2ccccc2)c1 | 1.36
32 | CCOC(=O)CCc1ccccc1 | 2.73
33 | NC(=O)c1ccncc1 | -0.28
34 | O=C(O)c1ccccc1Cl | 2.05
35 | CCCCCCCCl | 4.15
36 | CCCSP(=O)(OCC)Oc1ccc(Br)cc1Cl (centres undefined) | 4.68
37 | CN(C)c1ccc(C=C[N+](=O)[O-])cc1 | 2.67
38 | CCCCCC(=O)OCC(=O)C1(O)CCC2C3CCC4=CC(=O)CCC4(C)C3C(O)CC21C (centres undefined) | 4.48
39 | CC1CCCCC1 | 3.61
40 | c1cn(C23CC4CC(CC(C4)C2)C3)cn1 | 2.9

Row | Compound | logP
41 | O=[N+]([O-])C=Cc1ccoc1 | 1.41
42 | Cc1c(O)c(=O)ccn1CCN | -1.55
43 | Nc1ccc(-c2nc([N+](=O)[O-])c[nH]2)cc1 | 0.86
44 | Nc1cc2c3ccccc3ccc2c2ccccc12 | 4.99
45 | NC(=O)c1cccc(O)c1 | 0.39
46 | CCOC(=O)CC(SP(=S)(OC)OC)C(=O)OCC (centres undefined) | 2.36
47 | Nc1ccc(-c2ccc(N)cc2)cc1 | 1.34
48 | O=C(O)c1cc([N+](=O)[O-])cc([N+](=O)[O-])c1 | 1.55
49 | Cc1onc(-c2c(Cl)cccc2Cl)c1C(=O)N[C@@H]1C(=O)N2[C@@H]1SC(C)(C)[C@@H]2C(=O)O | 2.91
50 | NC(=O)Nc1ccccc1 | 0.83
51 | Cc1cnnc2cc(Cl)ccc12 | 1.98
52 | Cc1ccc(NC(=O)c2ccccc2)c(O)c1 | 3.08
53 | CCOC(=O)C(=Cc1cccc(OC)c1)C(C)=O | 2.34
54 | CC(=NO)c1cccs1 | 1.81
55 | CN(C)C(=O)Nc1cccc(F)c1 | 1.37
56 | NC(=O)c1cccc2[nH]ccc12 | 0.66
57 | CN(C)c1ccncc1 | 1.34
58 | OCC1OC(OCc2ccccc2)C(O)C(O)C1O (centres undefined) | -0.7

same assay, conditions: pH 7.4

Row | Compound | logD
59 | O=C(O)CCCc1ccc(N(CCCl)CCCl)cc1 | 1.7
